The nature of data set [1]: Solubility Determination Assay (PBS, LC-MS/MS). Format: physicochemical. The note with it: aqueous buffer, kinetic from dmso stock. As for the experimental part: The stock solutions of test compounds and control compound progesterone were prepared in DMSO at the concentrations of 10 mM. 15 μL of stock solution (10 mM) of each sample was placed in order into their proper 96-well rack. 485 μL of PBS pH 1.6 and pH 7.4 were added into each vial of the cap-less Solubility Sample plate. The assay was performed in singlet. One stir stick was added to each vial and then the vial was sealed using a molded PTFE/Silicone plug. […] After completion of the 2 hours, plugs were removed and the stir sticks were removed using a big magnet. The samples from the Solubility Sample plate were transferred into the filter plate. Using the Vacuum Manifold, all the samples were filtered. An aliquot of 5 μL was taken from the filtrate followed by addition of 495 μL of a mixture of H2O and acetonitrile containing internal standard (1:1). A certain proportion of ultrapure water was used to dilute the diluent according to the peak shape. The dilution factor was changed according to the solubility values and the LC-MS signal response.
From the 10 mM DMSO STD plate, 6 μL was transferred into the remaining empty plate, and then 194 μL of DMSO were added to that plate to have a STD concentration of 300 μM. From the 300 μM DMSO STD plate, 5 μL were transferred into the remaining empty plate, and then 495 μL of a mixture of H2O and acetonitrile containing internal standard (1:1) were added to that plate to have a final STD concentration of 3 μM. A certain proportion of ultrapure water was used to dilute the diluent according to the peak shape. The concentrations of the standard samples were changed according to the LC-MS signal response.
The plate was placed into the well plate autosampler. The samples were evaluated by LC-MS/MS analysis.
All calculations were carried out using Microsoft Excel.
The filtrate was analyzed and quantified against a standard of known concentration using LC coupled with mass spectral peak identification and quantitation. Solubility values of the test compound and control compound were calculated as follows: […]
Any value of the compounds that was not within the specified limits was rejected and the experiment was repeated.
“+++” indicates a solubility value equal to or greater than 10 μM, “++” indicates a solubility value between 1 and 10 μM, and “+” indicates a solubility value less than 1 μM.

A short description of data set [2]: Liver Microsome Stability Assay, human. Format: in vitro ADME. The conditions noted are these: human liver microsomes, with NADPH, 1 μM compound, read-out: Human liver microsome clearance. As for the experimental part: The master solution was prepared according to Table 6.
Two separate experiments were performed as follows.
With Cofactors (NADPH): 25 μL of 10 mM NADPH was added to the incubations. The final concentrations of microsomes and NADPH were 0.5 mg/mL and 1 mM, respectively. The final concentration of microsomes was 0.5 mg/mL. The mixture was pre-warmed at 37° C. for 10 minutes. The reaction was started with the addition of 2.5 μL of 100 μM control compound or test compound solutions. Verapamil was used as positive control in this study. The final concentration of test compound or control compound was 1 μM. The incubation solution was incubated in water batch at 37° C. Aliquots of 25 μL were taken from the reaction solution at 0.5, 5, 15, 30 and 60 minutes. The reaction was stopped by the addition of 5 volumes of cold acetonitrile with IS (200 nM caffeine and 100 nM tolbutamide). Samples were centrifuged at 3, 220 g for 40 minutes. Aliquot of 100 μL of the supernatant was mixed with 100 μL of ultra-pure H2O and then used for LC-MS/MS analysis.
Data Analysis: All calculations were carried out using Microsoft Excel. Peak areas were determined from extracted ion chromatograms. The slope value, k, was determined by linear regression of the natural logarithm of the remaining percentage of the parent drug vs. incubation time curve.
The in vitro half-life (in vitro t1/2) was determined from the slope value: in vitro t1/2=−([…]/k)
Conversion of the in vitro t1/2 (min) into the in vitro intrinsic clearance (in vitro CLint, in μL/min/mg protein) was done using the following equation (mean of duplicate determinations):
The calculations of Scaled-up CLint (mL/min/kg), Predicted CLH (mL/min/kg) and EH were done using the following equation: Scaled-up CLint=(0.693/t1/2)×(1/(microsomal protein concentration(0.5 mg/mL)))×Scaling Factors; Predicted CLH=(QH×Scaled-up CLint×fub)/(QH+Scaled-up CLint×fub); EH=Predicted CLH/QH • where QH is the hepatic blood flow (mL/min/kg) (Table 7), • fub is the fraction of unbound drug in plasma which is assumed to be 1. […]
Background: Microsomes from liver hold many membrane-bound enzymes, among them those of drug oxidation.

Setting [3] is: PBS pH 1.6, 25° C., read-out: Aq. Solubility at pH = 1.6.
Setting [4] is: PBS pH 7.4, 25° C., read-out: Aq. Solubility at pH = 7.4.

Values after ≈ are worked out from the molar mass of the structure shown. Like-named read-outs stand apart in the source and are kept apart here.

In the case of `Cn1nccc1C(=O)Nc1ccc2nc(-c3ccccc3C(F)(F)F)[nH]c2c1` [A, 1-methyl-N-(2-(2-(trifluoromethyl)phenyl)-1H-benzo[d]imidazol-6-yl)-1H-pyrazole-5-carboxamide], the solubility at 2 h in data set [1] (setting [3]) and in data set [1] (setting [4]) was greater than 10 µM each time. Further, the CLint scaled at 1 μM in data set [2] was less than 10 mL/min/kg.
Turning to `Cn1ncnc1C(=O)Nc1ccc2nc(-c3ccccc3C(F)(F)F)[nH]c2c1` [Compound H, 1-methyl-N-(2-(2-(trifluoromethyl)phenyl)-1H-benzo[d]imidazol-6-yl)-1H-1,2,4-triazole-5-carboxamide], the solubility at 2 h was greater than 10 µM in data set [1] (setting [3]) and 1 to 10 µM (≈ 0.386 to 3.86 µg/mL) in data set [1] (setting [4]). The CLint scaled at 1 μM in data set [2] is less than 10 mL/min/kg.

In general, solubility refers to the concentration that dissolves in the medium under given conditions.

(Values after patent US12570638B2, “Fused imidazole derivatives as AHR antagonists” (Sail Biomedicines, Inc., priority 2020, dated 2026).)
